According to patent US20250320193A1, “OXOISOINDOLINYL SUBSTITUTED PIPERIDINEDIONE DERIVATIVE AND USE THEREOF” (GLUETACS THERAPEUTICS (SHANGHAI) CO., LTD., priority 2022, published 2025):
pIC50: −log10 of the molar value.

How the values were obtained:
[1] = target: human Cereblon WT GST-tagged protein (Homo sapiens (Human), UniProt Q96SW2); assay: CRBN-binding affinity, HTRF (CEREBLON BINDING kit, CISBIO); conditions: HTRF inhibitory activity
Method in brief: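 Compounds were mixed with GST-tagged human Cereblon WT protein, then with Thalidomide-Red tracer and GST Eu antibody, and binding was read by HTRF. Inhibition rate was calculated from 620 nm emission relative to blank control wells (no protein) and solvent control wells.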

IKZF1 = IKZF1 (Homo sapiens (Human), UniProt Q13422+Q96SW2); assay: Western blot, substrate protein expression in hPBMC: IKZF1; assay type: cell-based; conditions: hPBMC, compound 500 nM, 24 hours, Western blot
Method in brief: (§1)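 hPBMC, 1×10^6 cells/mL, 24 h compound exposure; RIPA lysis, BCA protein assay, SDS-PAGE, NC membrane immunoblot. Densitometry vs internal control → % protein remaining; degradation % = 100% − remaining; DC50 = conc. at 50% of DMSO band signal.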

IKZF3 = IKZF3 (Homo sapiens (Human), UniProt Q96SW2+Q9UKT9); assay: Western blot, substrate protein expression in hPBMC: IKZF3; assay type: cell-based; conditions: hPBMC, compound 500 nM, 24 hours, Western blot
Method in brief: as §1

GSPT1 = GSPT1 (Homo sapiens (Human), UniProt P15170+Q96SW2); assay: Western blot, substrate protein expression in hPBMC: GSPT1; assay type: cell-based; conditions: hPBMC, compound 500 nM, 24 hours, Western blot
Method in brief: as §1

[2] = tested on: CAL-62 (human thyroid carcinoma cells); assay: Tumor cell proliferation inhibition, CCK-8; assay type: cell-based; conditions: CAL-62 cells, CCK-8, read-out: inhibitory activity (IC50, nM) CAL-62
Method in brief: (§2)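 Cells were seeded, left for 24 h, then exposed to compound at 10 concentrations from a top of 10 μM in 5-fold serial dilutions. Viability was then read with CCK-8 reagent, and IC50 values came from the growth-inhibition curves.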

[3] = tested on: CCRF-CEM (human acute lymphoblastic leukemia T-cells); assay: Tumor cell proliferation inhibition, CCK-8; assay type: cell-based; conditions: CCRF-CEM cells, CCK-8, read-out: inhibitory activity (IC50, nM) CCRF-CEM
Method in brief: as §2

[4] = tested on: H146 cells (human small cell lung carcinoma cells); assay: Tumor cell proliferation inhibition, CCK-8; assay type: cell-based; conditions: NCI-H146, H146 cells, CCK-8, read-out: inhibitory activity (IC50, nM) H146
Method in brief: as §2

[5] = tested on: Jurkat cells (human T-cell leukemia cells); assay: Tumor cell proliferation inhibition, CCK-8; assay type: cell-based; conditions: Jurkat cells, CCK-8, read-out: inhibitory activity (IC50, nM) Jurkat
Method in brief: as §2

[6] = tested on: Kasumi-1 (human acute myeloid leukemia cells); assay: Tumor cell proliferation inhibition, CCK-8; assay type: cell-based; conditions: Kasumi-1 cells, CCK-8, read-out: inhibitory activity (IC50, nM) Kasumi-1
Method in brief: as §2

[7] = tested on: MDA-MB-231 cells (human breast adenocarcinoma cells); assay: Tumor cell proliferation inhibition, CCK-8; assay type: cell-based; conditions: MDA-MB-231 cells, CCK-8, read-out: inhibitory activity (IC50, nM) MDA-MB-231
Method in brief: as §2

[8] = tested on: MM.1R cells (dexamethasone-resistant human multiple myeloma cells); assay: Tumor cell proliferation inhibition, CCK-8; assay type: cell-based; conditions: MM.1R cells, CCK-8, read-out: inhibitory activity (IC50, nM) MM.1R
Method in brief: as §2

[9] = tested on: MM.1S cells (human multiple myeloma cells); assay: Tumor cell proliferation inhibition, CCK-8; assay type: cell-based; conditions: MM1.S, MM.1S cells, CCK-8, read-out: inhibitory activity (IC50, nM) MM.1S
Method in brief: as §2

[10] = tested on: TMD8 cells (human diffuse large B-cell lymphoma cells); assay: Tumor cell proliferation inhibition, CCK-8; assay type: cell-based; conditions: TMD8 cells, CCK-8, read-out: inhibitory activity (IC50, nM) TMD8
Method in brief: as §2

Chain of IKZF3 (Q9UKT9 whole entry): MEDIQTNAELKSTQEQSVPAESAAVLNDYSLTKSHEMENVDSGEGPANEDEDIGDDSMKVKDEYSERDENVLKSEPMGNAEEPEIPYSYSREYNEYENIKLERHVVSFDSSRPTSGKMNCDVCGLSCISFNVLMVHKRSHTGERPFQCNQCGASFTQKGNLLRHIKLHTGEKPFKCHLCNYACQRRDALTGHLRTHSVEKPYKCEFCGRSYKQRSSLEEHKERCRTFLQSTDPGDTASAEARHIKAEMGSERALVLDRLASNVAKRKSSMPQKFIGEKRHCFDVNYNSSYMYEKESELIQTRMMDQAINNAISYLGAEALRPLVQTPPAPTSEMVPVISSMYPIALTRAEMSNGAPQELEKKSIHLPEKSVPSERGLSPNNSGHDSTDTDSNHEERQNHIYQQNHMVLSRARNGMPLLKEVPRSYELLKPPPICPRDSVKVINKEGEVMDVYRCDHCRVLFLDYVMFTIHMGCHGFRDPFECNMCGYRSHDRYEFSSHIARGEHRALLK
Chain of IKZF3 (Q96SW2 whole entry): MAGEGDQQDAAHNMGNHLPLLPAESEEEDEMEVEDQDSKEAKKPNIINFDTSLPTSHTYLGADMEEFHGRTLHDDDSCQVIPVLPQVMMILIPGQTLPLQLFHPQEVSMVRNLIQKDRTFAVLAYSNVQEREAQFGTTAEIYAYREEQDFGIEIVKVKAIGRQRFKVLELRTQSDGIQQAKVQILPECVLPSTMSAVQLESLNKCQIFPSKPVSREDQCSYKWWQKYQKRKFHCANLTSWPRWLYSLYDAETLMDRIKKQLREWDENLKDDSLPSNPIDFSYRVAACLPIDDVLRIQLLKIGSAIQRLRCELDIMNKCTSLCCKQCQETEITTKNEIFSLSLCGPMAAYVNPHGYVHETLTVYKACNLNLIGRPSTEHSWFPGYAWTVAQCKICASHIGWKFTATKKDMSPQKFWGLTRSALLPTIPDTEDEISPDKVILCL
Chain of IKZF3 (Q16531 whole entry partner): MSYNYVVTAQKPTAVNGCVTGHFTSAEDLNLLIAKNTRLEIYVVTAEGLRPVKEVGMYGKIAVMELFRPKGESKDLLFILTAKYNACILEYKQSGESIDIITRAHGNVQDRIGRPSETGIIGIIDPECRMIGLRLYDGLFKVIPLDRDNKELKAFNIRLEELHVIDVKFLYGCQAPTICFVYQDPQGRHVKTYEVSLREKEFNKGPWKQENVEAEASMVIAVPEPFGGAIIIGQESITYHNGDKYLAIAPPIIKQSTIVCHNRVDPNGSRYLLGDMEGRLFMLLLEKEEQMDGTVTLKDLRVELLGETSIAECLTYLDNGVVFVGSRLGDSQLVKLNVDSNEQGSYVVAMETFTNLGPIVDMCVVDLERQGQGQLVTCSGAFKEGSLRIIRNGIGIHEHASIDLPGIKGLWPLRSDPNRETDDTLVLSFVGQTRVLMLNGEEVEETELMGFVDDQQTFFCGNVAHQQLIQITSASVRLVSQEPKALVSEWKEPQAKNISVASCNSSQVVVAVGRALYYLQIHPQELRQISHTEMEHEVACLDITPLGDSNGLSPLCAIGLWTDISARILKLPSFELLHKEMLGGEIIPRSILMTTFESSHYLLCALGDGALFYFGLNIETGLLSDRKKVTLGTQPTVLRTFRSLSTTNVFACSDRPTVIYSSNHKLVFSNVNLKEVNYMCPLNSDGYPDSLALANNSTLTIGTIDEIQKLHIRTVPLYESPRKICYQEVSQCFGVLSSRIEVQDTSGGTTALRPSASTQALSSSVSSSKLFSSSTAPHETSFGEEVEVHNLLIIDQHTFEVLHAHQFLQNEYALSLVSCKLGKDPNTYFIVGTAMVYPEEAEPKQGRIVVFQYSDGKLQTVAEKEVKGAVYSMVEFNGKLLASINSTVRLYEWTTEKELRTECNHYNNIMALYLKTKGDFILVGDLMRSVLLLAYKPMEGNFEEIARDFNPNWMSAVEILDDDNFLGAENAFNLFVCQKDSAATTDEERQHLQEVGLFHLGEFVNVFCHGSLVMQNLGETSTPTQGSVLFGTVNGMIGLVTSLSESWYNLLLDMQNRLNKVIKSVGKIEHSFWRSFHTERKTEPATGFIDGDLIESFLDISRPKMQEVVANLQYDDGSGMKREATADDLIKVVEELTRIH
Chain of IKZF1 (Q13422 whole entry): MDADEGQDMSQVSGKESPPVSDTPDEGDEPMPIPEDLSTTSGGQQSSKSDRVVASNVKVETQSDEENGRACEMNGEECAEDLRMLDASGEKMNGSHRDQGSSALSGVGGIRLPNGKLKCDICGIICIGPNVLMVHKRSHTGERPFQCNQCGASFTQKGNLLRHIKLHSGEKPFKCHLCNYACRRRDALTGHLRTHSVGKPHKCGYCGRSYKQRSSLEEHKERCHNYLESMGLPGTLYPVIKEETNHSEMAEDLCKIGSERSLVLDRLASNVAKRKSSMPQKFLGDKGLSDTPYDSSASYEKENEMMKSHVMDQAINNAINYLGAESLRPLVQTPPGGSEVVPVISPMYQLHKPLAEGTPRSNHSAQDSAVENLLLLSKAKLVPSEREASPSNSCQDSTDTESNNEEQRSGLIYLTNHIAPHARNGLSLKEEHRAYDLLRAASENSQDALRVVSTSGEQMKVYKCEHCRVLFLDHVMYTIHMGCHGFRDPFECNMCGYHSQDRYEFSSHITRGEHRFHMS
Chain of IKZF1 (Q96SW2 whole entry): as the sequence (Q96SW2 whole entry) above
Chain of IKZF1 (Q16531 whole entry partner): as the sequence (Q16531 whole entry partner) above
Chain of GSPT1 (P15170 whole entry): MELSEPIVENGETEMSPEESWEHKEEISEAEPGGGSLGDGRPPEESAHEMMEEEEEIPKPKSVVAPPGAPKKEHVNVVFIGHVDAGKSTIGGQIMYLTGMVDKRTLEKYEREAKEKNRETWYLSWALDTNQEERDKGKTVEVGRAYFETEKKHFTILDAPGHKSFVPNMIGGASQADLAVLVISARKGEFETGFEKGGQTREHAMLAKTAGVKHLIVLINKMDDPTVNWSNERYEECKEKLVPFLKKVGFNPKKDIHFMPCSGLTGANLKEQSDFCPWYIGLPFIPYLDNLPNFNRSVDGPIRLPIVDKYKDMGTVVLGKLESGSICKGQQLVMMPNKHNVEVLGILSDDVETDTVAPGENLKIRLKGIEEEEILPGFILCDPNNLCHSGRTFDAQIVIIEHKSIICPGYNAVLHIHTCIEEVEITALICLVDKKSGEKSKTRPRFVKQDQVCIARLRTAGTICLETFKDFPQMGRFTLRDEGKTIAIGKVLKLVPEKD
Chain of GSPT1 (Q96SW2 whole entry): as the sequence (Q96SW2 whole entry) above
Chain of GSPT1 (Q16531 whole entry partner): as the sequence (Q16531 whole entry partner) above
Chain of human Cereblon WT GST-tagged protein (Q96SW2 whole entry): as the sequence (Q96SW2 whole entry) above

pIC50 [1]	IC50 [2]	IC50 [3]	IC50 [4]	IC50 [5]	IC50 [6]	IC50 [7]	IC50 [8]	IC50 [9]	IC50 [10]	Compound	substrate protein remaining % IKZF1 (IKZF1)	substrate protein remaining % IKZF3 (IKZF3)	substrate protein remaining % GSPT1 (GSPT1)
5.72 to 6.00	1 to 10 nM	< 1 nM	10 to 50 nM	1 to 10 nM	1 to 10 nM	10 to 50 nM	1 to 10 nM	1 to 10 nM	10 to 50 nM	O=C1CCC(N2Cc3cc(CN4CCN(C(c5ccccc5)c5ccccn5)CC4)c(F)cc3C2=O)C(=O)N1 (centres unmarked) [GT-03833, 3-(6-fluoro-1-oxo-5-((4-(phenyl(pyridin-2-yl)methyl)piperazin-1-yl)methyl)isoindolin-2-yl)piperidine-2,6-dione]	B (B represents substrate protein remaining % > 50%)	A (A represents 0% ≤ substrate protein remaining % ≤ 50%)	A (A represents 0% ≤ substrate protein remaining % ≤ 50%)
6.00 to 6.30	1 to 10 nM	1 to 10 nM	50 to 100 nM	1 to 10 nM	1 to 10 nM	10 to 50 nM	1 to 10 nM	1 to 10 nM	100 to 500 nM	O=C1CCC(N2Cc3cc(CN4CCN(C(c5ccccc5)c5ccccn5)CC4)ccc3C2=O)C(=O)N1 (centres unmarked) [GT-03835, 3-(1-oxo-5-((4-(phenyl(pyridin-2-yl)methyl)piperazin-1-yl)methyl)isoindolin-2-yl)piperidine-2,6-dione]	A (A represents 0% ≤ substrate protein remaining % ≤ 50%)	A (A represents 0% ≤ substrate protein remaining % ≤ 50%)	A (A represents 0% ≤ substrate protein remaining % ≤ 50%)
